Legend:
[1] = Stability constants of complexes with zinc ions by pH-metric titration, Bjerrum method; format: physicochemical; settings: aqueous solution, CL = 0.02M, M^z+/L = 1:6, ion strength 0.5 (KNO3), 22° C.; for The first stability constant, lgK1 (zinc ions) / The second stability constant, lgK2 (zinc ions) / The third stability constant, lgK3 (zinc ions): Table 5; for The first stability constant of complexes with 1:1 compositions, lgK1, Zn (II): Table 4
Protocol: (§1) Initial 0.05 M solutions of M^z+ metal ions were prepared from nitrates of zinc (Zn(NO3)2·6H2O), calcium (Ca(NO3)2·4H2O), copper sulfate (CuSO4·5H2O), magnesium chloride (MgCl2·6H2O) and Mohr's salt ((NH4)2Fe(SO4)2·6H2O). Standardization of the initial solutions of M^z+ salts was performed by a complexometric titration method with trilon B (M^z+=Zn^2+, Cu^2+, Mg^2+, Ca^2+) and a spectrophotometric method at 490 nm by using o-phenanthroline (M^z+=Fe^2+).
(§2) Given the parameters, such as the amount of a studied compound required for potentiometric titration, a testing procedure and a constant calculation method, the Bjerrum method is most suitable and informative [Yu. P. Galaktionov, M. A. Chistyakov, V. G. Sevastiyanov, etc., “Step Stability Constants of Group IIIB Metal and Lanthanide Complexes with Acetylacetone in Aqueous Solution and the Solubility Products of Metal Triacetylacctonates”, Journal of physical chemistry, 2004, v. 78, No. 9, pp. 1596-1604].
(§3) The method is based on the view that the process of complex formation is stepwise. A main assumption of the Bjerrum method is an assumption about the formation of only […] complexes. The process of complex formation can be schematically described as follows:
(§4) According to the Bjerrum method, a studied compound is titrated with a NaOH solution twice: in the absence of and in the presence of a metal ion. The titration is performed under a high constant concentration of an indifferent electrolyte, which provides the solution with a constant ionic strength.
(§5) For these purposes, highly soluble salts are used, for example, sodium and potassium salts. Concentration step stability constants (Kn) are determined from experiments. In addition, the method provides information concerning the composition of a formed complex, in particular, the maximum possible number of bound ligands (n).
(§6) Traditional procedure for determining step stability constants for complexes by the Bjerrum method of pH-metric titration was performed as follows.
(§7) A sample of a studies compound (3·10^−4 mol) was dissolved in 14.0 ml of a 0.5M aqueous KNO3 solution. One ml of a 0.05M aqueous solution of an M^z+ salt was added under vigorous stirring. The systems were studied with a M^z+/L ratio of 1:6. The pH value of a solution was fixed for coexisting ligands and metal ions. The mixture was titrated with a 0.05M NaOH aqueous solution within a broad range of pH values (up to pH 11.0-11.5). The amount of the used titrant (VNaOH, ml) and the pH value of the solution were registered in each titration point. At the moment when a residue formed, the solution became turbid, or the color of the solution changed, the pH value, the nature of the change and the amount of NaOH spent for the titration were registered. The step of titration was 0.25 ml. The value of lgKn was determined by the Bjerrum curve n=f(pA) for each semi-integer value of the function of complex formation n=n−0.5.
Today the Bjerrum method is frequently used to study complex formation processes. This method provides for the determination of two parameters: the concentration of a free ligand under equilibrium conditions ([L^−]) and the function of complex formation n which is the average number of ligands involved in the complex. Thus, using experimental data, the value [L^−] can be calculated for each time point of the titration (in particular, −lg[L^−]=pA), and n can be calculated by equation (1). When a ligand has several dissociating groups, the KL value in equation (1) matches the value of the dissociation constant with the largest pk value.
The Kn value is found from the Bjerrum curve (curve of the complex formation) n=f(pA) plotted according to equation (2) for each semi-integer value (n=n−0.5) of the function of the complex formation. Thus, the step stability constant will be equal to the reciprocal concentration of a free ligand at a point of n=n−0.5. […]

[2] = First stability constant of complexes with Fe (II) by pH-metric titration, Bjerrum method; format: physicochemical; settings: aqueous solution, CL = 0.02M; M^z+/L = 1:6; ion strength 0.5 (KNO3), 22° C.
Protocol: as §1, §2, §3, §4, §5, §6
(§8) A sample of a studies compound (3·10^−4 mol) was dissolved in 14.0 ml of a 0.5M aqueous KNO3 solution. One ml of a 0.05M aqueous solution of an M^z+ salt was added under vigorous stirring. The systems were studied with a M^z+/L ratio of 1:6. The pH value of a solution was fixed for coexisting ligands and metal ions. […] The value of lgKn was determined by the Bjerrum curve n=f(pA) for each semi-integer value of the function of complex formation n=n−0.5.
(§9) Today the Bjerrum method is frequently used to study complex formation processes. […] Thus, using experimental data, the value [L^−] can be calculated for each time point of the titration (in particular, −lg[L^−]=pA), and n can be calculated by equation (1). […]

[3] = First stability constant of complexes with calcium ions by pH-metric titration, Bjerrum method; format: physicochemical; settings: aqueous solution, CL = 0.02M; M^z+/L = 1:6; ion strength 0.5 (KNO3), 22° C.
Protocol: as §1, §2, §3
According to the Bjerrum method, a studied compound is titrated with a NaOH solution twice: in the absence of and in the presence of a metal ion. […]
For these purposes, highly soluble salts are used, for example, sodium and potassium salts. Concentration step stability constants (Kn) are determined from experiments. […]
A sample of a studies compound (3·10^−4 mol) was dissolved in 14.0 ml of a 0.5M aqueous KNO3 solution. […] The value of lgKn was determined by the Bjerrum curve n=f(pA) for each semi-integer value of the function of complex formation n=n−0.5.
as §9

[4] = Acid dissociation constants (pk) by pH-potentiometric titration, Schwarzenbach method; format: physicochemical; settings: aqueous solution, C = 0.02M, ionic strength 0.5 (KNO3), 22° C.; for pk1: titration with 0.05M HCl aqueous solution (footnote 1); for pk2: titration with 0.05M aqueous NaOH solution (footnote 2)
Protocol: An important property of a ligand to form a complex is dissociation constants (pkn) of studied compounds in an aqueous solution. The pkn values are determined by a potentiometric titration method. The calculation of dissociation constants are performed by the Schwarzenbach method [Grinberg A. A., “An introduction to the chemistry of complex compounds”, fourth ed., Amend., L., Khimiya, 1971].
Titration was performed on an apparatus by using a laboratory ionomer I 120.1. A designed galvanic cell consisted of two electrodes, in particular an indicator glass electrode and a silver chloride comparison electrode. The pH value was measured with an accuracy of ±0.2.
A traditional method for determining acid dissociation step constants (k1, . . . , kn) by using pH-metric titration is the Schwarzenbach method.
A sample of a studied compound (3·10^−4 mol) was dissolved in 15.0 ml of a 0.5M aqueous KNO3 solution. The obtained […] solution was titrated with a 0.05M aqueous solution of NaOH or HCl under stirring. The amount (V, ml) of the used titrant and the pH value of the solution were registered in each titration point. A titration step was equal to 0.5 ml, and 0.2 ml in the proximity to the equivalency point. Titration was continued until the pH value of the solution reached 11.0 to 11.5. The pH value of the solution corresponding to a=0.5 and/or a=1.5 was determined by the titration curve pH=f(a), and the amount of added gram-equivalents of the titrant was calculated in terms of 1 mole of a titrated compound.

[5] = First stability constant of complexes with magnesium ions by pH-metric titration, Bjerrum method; format: physicochemical; settings: aqueous solution, CL = 0.02M; M^z+/L = 1:6; ion strength 0.5 (KNO3), 22° C.
Protocol: as §1, §2, §3, §4, §5, §6, §8, §9

[6] = First stability constant of complexes with Fe (III) by pH-metric titration, Bjerrum method; format: physicochemical; settings: aqueous solution, CL = 0.02M; M^z+/L = 1:6; ion strength 0.5 (KNO3), 22° C.
From the text: as §2, §3, §4, §5, §6, §7, §9

[7] = First stability constant of complexes with copper ions by pH-metric titration, Bjerrum method; format: physicochemical; settings: aqueous solution, CL = 0.02M; M^z+/L = 1:6; ion strength 0.5 (KNO3), 22° C.
Protocol: as §1, §2, §3, §4, §5, §6, §8, §9

[8] = Study of the chelating ability (summary statements on complex formation); format: physicochemical; settings: statement in words

Row | Structure (SMILES) | The first stability constant, lgK1 (zinc ions) [1] | The second stability constant, lgK2 (zinc ions) [1] | The third stability constant, lgK3 (zinc ions) [1] | The first stability constant of complexes with 1:1 compositions, lgK1, Fe (II) [2] | The first stability constant of complexes with 1:1 compositions, lgK1, Ca (II) [3] | pk1 [4] | pk2 [4] | The first stability constant of complexes with 1:1 compositions, lgK1, Mg (II) [5] | The first stability constant of complexes with 1:1 compositions, lgK1, Fe (III) [6] | The first stability constant of complexes with 1:1 compositions, lgK1, Cu (II) [7] | The first stability constant of complexes with 1:1 compositions, lgK1, Zn (II) [1] | melting point | ability to form complexes with or chelate metal ions [8]
1 | O=C(NCCc1cnc[nH]1)C(=O)NCCc1cnc[nH]1 [Compound 1, N,N′-bis-[2-(1H-imidazol-4-yl)ethyl]ethanediamide] | 4.52 | 4.21 | 3.75 | – | – | – | – | – | – | – | – | – | –
2 | O=C(CC(=O)NCCc1cnc[nH]1)NCCc1cnc[nH]1 [Compound 2, N,N′-bis-[2-(1H-imidazol-4-yl)ethyl]propanediamide] | 4.84 | 4.50 | 2.60 | 5.08 | 2.06 | 7.11^(1) | 11.27^(2) | 2.59 | 5.29 | 4.17 | 4.84 | – | –
3 | O=C(CCC(=O)NCCc1cnc[nH]1)NCCc1cnc[nH]1 [Compound 3, N,N′-bis-[2-(1H-imidazol-4-yl)ethyl]butanediamide] | 5.40 | 5.05 | 3.80 | 5.95 | 4.57 | 6.88 | 11.27^(2) | 4.36 | 6.59 | 5.32 | 5.40 | 230 to 231 °C | –
4 | O=C(NCCc1c[nH]cn1)c1cccc(C(=O)NCCc2c[nH]cn2)c1 [Compound 6, Bis-1,3-(N^β-histaminyl)isophthalic acid] | 5.62 | 5.15 | 4.04 | – | – | – | – | – | – | – | – | – | –
5 | O=C(CCCC(=O)NCCc1nccs1)NCCc1nccs1 [Compound 8] | 6.25 | 5.80 | 5.05 | – | – | – | – | – | – | – | – | – | –
6 | O=C(CCCC(=O)NCCc1ncc[nH]1)NCCc1ncc[nH]1 [Compound 10] | 5.50 | 5.24 | 4.48 | – | – | – | – | – | – | – | – | – | –
7 | O=C(CCCC(=O)NCCc1cnc[nH]1)NCCc1cnc[nH]1 [Compound 11, N,N′-bis-[2-(1H-imidazol-4-yl)ethyl]pentanediamide] | 5.05 | 4.70 | 2.87 | 6.27 | – | 7.16^(1) | 11.89^(2) | 2.82 | 6.60 | 4.39 | 5.05 | 166 to 168 °C | capable of forming complexes with metal ions
8 | O=C(CCCCC(=O)NCCc1cnc[nH]1)NCCc1cnc[nH]1 [Compound 12, N,N′-bis-[2-(1H-imidazol-4-yl)ethyl]hexanediamide] | 5.46 | 5.03 | 3.38 | 6.40 | 3.60 | 7.13^(1) | 11.95^(2) | 3.72 | 6.10 | 4.62 | 5.46 | 184 to 186 °C | –

Reference: US20230203016A1, “DICARBOXYLIC ACID BISAMIDE DERIVATIVES, USE THEREOF, PHARMACEUTICAL COMPOSITION BASED THEREON AND METHODS FOR PRODUCING DICARBOXYLIC ACID BISAMIDE DERIVATIVES” (TREAMID THERAPEUTICS GMBH, priority 2013, published 2023)
